Experimental data taken from US20250340574A1, “MODULATORS OF CYSTIC FIBROSIS TRANSMEMBRANE CONDUCTANCE REGULATOR” (Vertex Pharmaceuticals Incorporated, priority 2022, published 2025).
Read-outs that look alike come from different tables or passages of the source.

Molecular target: T1, CFTR (F508del/MF-HBE cells) (Homo sapiens, UniProt P13569, DEL508-508)
T1 construct: human bronchial epithelial (HBE) cells derived from CF subjects heterozygous for F508del and a minimal function CFTR mutation (F508del/MF-HBE); endogenous in cells; host or cells: Primary human bronchial epithelial cells from CF subjects (F508del/MF genotype), differentiated at an air-liquid interface
T1 sequence (P13569 with tags, fused parts or gaps DEL508-508): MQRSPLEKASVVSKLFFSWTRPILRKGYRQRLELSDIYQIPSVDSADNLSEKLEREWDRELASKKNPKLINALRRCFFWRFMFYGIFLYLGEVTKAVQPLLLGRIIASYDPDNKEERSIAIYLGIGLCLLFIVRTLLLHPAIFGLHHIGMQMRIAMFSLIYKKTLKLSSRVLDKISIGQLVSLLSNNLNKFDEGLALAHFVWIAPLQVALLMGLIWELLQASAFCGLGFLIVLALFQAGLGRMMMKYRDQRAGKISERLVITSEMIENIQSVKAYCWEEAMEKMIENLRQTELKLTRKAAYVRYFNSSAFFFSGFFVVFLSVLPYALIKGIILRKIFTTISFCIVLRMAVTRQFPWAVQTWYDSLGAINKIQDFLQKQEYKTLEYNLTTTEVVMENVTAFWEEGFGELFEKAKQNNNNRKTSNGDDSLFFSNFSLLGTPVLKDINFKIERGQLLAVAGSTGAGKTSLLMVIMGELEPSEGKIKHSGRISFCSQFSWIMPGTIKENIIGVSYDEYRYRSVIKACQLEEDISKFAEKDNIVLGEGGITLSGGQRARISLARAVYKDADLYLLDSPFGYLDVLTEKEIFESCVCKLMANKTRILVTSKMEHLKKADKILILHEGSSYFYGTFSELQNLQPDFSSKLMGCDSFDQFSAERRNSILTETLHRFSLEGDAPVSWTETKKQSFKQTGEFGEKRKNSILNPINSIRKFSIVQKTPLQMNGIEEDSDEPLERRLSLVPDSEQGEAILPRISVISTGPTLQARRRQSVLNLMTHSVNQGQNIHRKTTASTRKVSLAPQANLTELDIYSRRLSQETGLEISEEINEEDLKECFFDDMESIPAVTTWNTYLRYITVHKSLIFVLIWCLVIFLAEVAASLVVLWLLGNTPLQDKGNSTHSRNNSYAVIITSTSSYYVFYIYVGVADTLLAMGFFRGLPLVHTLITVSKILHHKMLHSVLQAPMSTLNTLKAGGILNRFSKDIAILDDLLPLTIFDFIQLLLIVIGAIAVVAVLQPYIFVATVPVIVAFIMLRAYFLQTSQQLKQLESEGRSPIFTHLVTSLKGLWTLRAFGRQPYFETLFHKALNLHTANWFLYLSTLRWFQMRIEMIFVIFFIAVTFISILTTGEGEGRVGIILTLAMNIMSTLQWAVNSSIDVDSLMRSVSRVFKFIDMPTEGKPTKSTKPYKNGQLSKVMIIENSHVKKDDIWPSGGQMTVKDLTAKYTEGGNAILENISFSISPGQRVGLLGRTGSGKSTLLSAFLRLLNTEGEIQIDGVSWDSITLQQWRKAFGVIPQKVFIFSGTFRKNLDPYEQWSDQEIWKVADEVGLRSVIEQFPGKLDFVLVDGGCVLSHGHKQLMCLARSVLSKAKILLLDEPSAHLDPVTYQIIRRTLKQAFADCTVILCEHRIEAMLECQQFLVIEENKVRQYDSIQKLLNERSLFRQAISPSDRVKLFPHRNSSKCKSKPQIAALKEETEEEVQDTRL
Assay: Ussing chamber assay of CFTR-mediated short-circuit currents, Assay C (0.026 μM to 25 μM, 6 concentrations)
Type: cell-based
Conditions: with 33 nM potentiator and 18 μM Tezacaftor, 20% human serum; for Emax: read-out: C Max activity (%)
Protocol: Ussing chamber experiments were performed using human bronchial epithelial (HBE) cells derived from CF subjects heterozygous for F508del and a minimal function CFTR mutation (F508del/MF-HBE) and cultured as previously described (Neuberger T, Burton B, Clark H, Van Goor F Methods Mol Biol 2011:741:39-54). After four days the apical media was removed, and the cells were grown at an air liquid interface for >14 days prior to use.
To isolate the CFTR-mediated short-circuit (ISC) current, F508del/MF-HBE grown on Costar® Snapwell™ cell culture inserts were mounted in an Ussing chamber and the transepithelial ISC was measured under voltage-clamp recording conditions (Vhold=0 mV) at 37° C. The basolateral solution contained (in mM) 145 NaCl, 0.83 K2HPO4, 3.3 KH2PO4, 1.2 MgCl2, 1.2 CaCl2, 10 Glucose, 10 HEPES (pH adjusted to 7.4 with NaOH) and the apical solution contained (in mM) 145 NaGluconate, 1.2 MgCl2, 1.2 CaCl2, 10 glucose, 10 HEPES (pH adjusted to 7.4 with NaOH) and 30 μM amiloride to block the epithelial sodium channel. Forskolin (20 μM) was added to the apical surface to activate CFTR, followed by apical addition of a CFTR inhibitor cocktail consisting of BPO, GlyH-101, and CFTR inhibitor 172 (each at 20 μM final assay concentration) to specifically isolate CFTR currents. The CFTR-mediated ISC (μA/cm^2) for each condition was determined from the peak forskolin response to the steady-state current following inhibition.
The activity of the CFTR corrector compounds on the CFTR-mediated ISC was determined in Ussing chamber studies as described above. The F508del/MF-HBE cell cultures were either incubated with the corrector compounds at a range of concentrations in combination with 33 nM (6R,12R)-17-amino-12-methyl-6,15-bis(trifluoromethyl)-13,19-dioxa-3,4,18-triazatricyclo[12.3.1.12,5]nonadeca-1(18),2,4,14,16-pentaen-6-ol and 18 μM Tezacaftor or were incubated with the corrector compounds at a single fixed concentration of 1 μM in combination with 44 nM (6R,12R)-17-amino-12-methyl-6,15-bis(trifluoromethyl)-13,19-dioxa-3,4,18-triazatricyclo[12.3.1.12,5]nonadeca-1(18),2,4,14,16-pentaen-6-ol and 18 μM Tezacaftor for 18-24 hours at 37° C. and in the presence of 20% human serum. The concentration of corrector compounds with 44 nM or 33 nM (6R,12R)-17-amino-12-methyl-6,15-bis(trifluoromethyl)-13,19-dioxa-3,4,18-triazatricyclo[12.3.1.12,5]nonadeca-1(18),2,4,14,16-pentaen-6-ol and 18 μM Tezacaftor during the 18-24 hours incubations was kept constant throughout the Ussing chamber measurement of the CFTR-mediated ISC to ensure compounds were present throughout the entire experiment. The efficacy and potency of the putative F508del correctors was compared to that of the known Vertex corrector, (14S)-8-[3-(2-{Dispiro[2.0.2.1]heptan-7-yl}ethoxy)-1H-pyrazol-1-yl]-12,12-dimethyl-2λ^6-thia-3,9,11,18,23-pentaazatetracyclo[17.3.1.111,14.05,10]tetracosa-1(22),5,7,9,19(23),20-hexaene-2,2,4-trione, in combination with 18 μM Tezacaftor and 1 μM Ivacaftor.
• Assay A: 0.1 μM to 25 μM, 6 concentrations • Assay B: 0.00001 μM to 25 μM, 12 concentrations • Assay C: 0.026 μM to 25 μM, 6 concentrations • Assay D: Activity at single concentration of 1 μM

Row | Structure (SMILES) | Emax (18-24 hours) [%] | EC50 [µM] | Emax [%]
1 | Cc1cccc(C)c1-c1cc2nc(n1)NS(=O)(=O)c1cccc(c1)C(=O)N(Cc1ncc3oc(C4CC4)cc3n1)[C@H](CC1(C)CC1)CO2 [Compound I-199] | > 60 | 3 to 30 | 
2 | Cc1cccc(C)c1-c1cc2nc(n1)NS(=O)(=O)c1cccc(c1)C(=O)N(Cc1cnc3oc([C@H](C)CO)cc3n1)[C@H](CC1(C)CC1)CO2 [IV-52, (11R)-6-(2,6-Dimethylphenyl)-12-[[6-[(1R)-2-hydroxy-1-methyl-ethyl]furo[2,3-b]pyrazin-2-yl]methyl]-11-[(1-methylcyclopropyl)methyl]-2,2-dioxo-9-oxa-2λ^6-thia-3,5,12,19-tetrazatricyclo[12.3.1.14,8]nonadeca-1(18),4(19),5,7,14,16-hexaen-13-one] |  | 3 to 30 | > 60
3 | Cc1cccc(C)c1-c1cc2nc(n1)NS(=O)(=O)c1cccc(c1)C(=O)N(Cc1cnc3cc(C(C)(C)C)n(C)c3n1)[C@@H](C(C1CCC1)C1CCC1)CO2 [IV-50] |  | < 1 | > 60
4 | Cc1cccc(C)c1-c1cc2nc(n1)NS(=O)(=O)c1cccc(c1)C(=O)N(Cc1cnc3oc(C4CC4)cc3n1)[C@H]([C@H](C)OCc1ccccc1)CO2 [IV-62] |  | 3 to 30 | > 60
5 | COCc1c(C(C)(C)C)n(C)c2nc(CN3C(=O)c4cccc(c4)S(=O)(=O)Nc4nc(cc(-c5c(C)cccc5C)n4)OC[C@H]3CC34CC(C3)C4)cnc12 [IV-89, (11R)-11-(1-bicyclo[1.1.1]pentanylmethyl)-12-[[6-tert-butyl-7-(methoxymethyl)-5-methyl-pyrrolo[2,3-b]pyrazin-3-yl]methyl]-6-(2,6-dimethylphenyl)-2,2-dioxo-9-oxa-2λ^6-thia-3,5,12,19-tetrazatricyclo[12.3.1.14,8]nonadeca-1(18),4(19),5,7,14,16-hexaen-13-one] |  | < 1 | > 60
6 | Cc1cccc(CC(C)C)c1-c1nc2nc(c1C)OC[C@@H](COC(C)C)N(Cc1cnc3oc(C(C)(C)C)cc3n1)C(=O)c1cccc(c1)S(=O)(=O)N2 (atropisomer, axis not shown) [IV-43] |  | 1 to 3 | > 60
7 | Cc1cccc(CC(C)C)c1-c1nc2nc(c1C)OC[C@@H](CC13CC(C1)C3)N(Cc1cnc3oc(C(C)(C)C)cc3n1)C(=O)c1cccc(c1)S(=O)(=O)N2 [Compound I-247] | > 60 | < 1 | 
8 | Cc1cccc(C)c1-c1nc2nc(c1C)OC[C@@H](C[C@H]1CCCO1)N(Cc1cnc3cc(C4(C(F)(F)F)CC4)n(C)c3n1)C(=O)c1cccc(c1)S(=O)(=O)N2 [IV-106] |  | < 1 | > 60
9 | Cc1cccc(C)c1-c1cc2nc(n1)NS(=O)(=O)c1cccc(c1)C(=O)N(Cc1cnc3oc(C(C)(C)CO)cc3n1)[C@H](CC1(C)CC1)CO2 [Compound I-112] | > 60 | 3 to 30 | 
10 | Cc1cccc(CCC(C)C)c1-c1nc2nc(c1C)OC[C@@H](CC(C)(C)C)N(Cc1cnc3cc(C(C)C)n(C)c3n1)C(=O)c1cccc(c1)S(=O)(=O)N2 (single isomer, unassigned) [Compound I-202] | > 60 | < 1 | 
11 | Cc1cccc(CC(C)C)c1-c1nc2nc(c1C)OC[C@@H](COC(F)(F)F)N(Cc1cnc3cc(C(C)(C)C)n(C)c3n1)C(=O)c1cccc(c1)S(=O)(=O)N2 (atropisomer, axis not shown; (P)) [IV-70, (6P,11S)-12-({6-tert-butyl-5-methyl-5H-pyrrolo[2,3-b]pyrazin-3-yl}methyl)-7-methyl-6-[2-methyl-6-(2-methylpropyl)phenyl]-11-[(trifluoromethoxy)methyl]-9-oxa-2λ^6-thia-3,5,12,19-tetraazatricyclo[12.3.1.1∧{4,8}]nonadeca-1(17),4,6,8(19),14(18),15-hexaene-2,2,13-trione] |  | 1 to 3 | > 60
12 | Cc1cccc(C)c1-c1cc2nc(n1)NS(=O)(=O)c1cccc(c1)C(=O)N(Cc1cnc3cc(C4(C(F)(F)F)CC4)n(C)c3n1)[C@H](C[C@@H]1CCCO1)CO2 [IV-103] |  | 1 to 3 | > 60
